Test results published in patent US5965088A, “Method for providing rapid disinfection of contact lenses” (priority 1997, dated 1999).
Several values for one entry are separate records, joined by “and”; a condition that tells them apart may be missing. Identical values can stand only once.

Columns and labels:
[1] = system: rabbit eye (cornea, iris, conjunctivae); test: Ocular irritation screening study in the rabbit (Draize score, soaked soft lenses); assay type: in vivo; design: key to Draize macroscopic ocular score (weighted total): Draize weighted total score; max 110 per eye; conditions: for Draize macroscopic ocular score (weighted total): right (test) eye
Protocol: (§1) A series of formulations were prepared in which the amount of alexidine were, respectively 4 ppm (test 1), 6 ppm (test 2), 8 ppm (test 3), 10 ppm (test 4), 12 ppm (test 5), 15 ppm (test 6), 18 ppm (test 7), 22 ppm (test 8), 27 ppm (test 9), 33 ppm (test 10), 40 ppm (test 11) and 50 ppm (test 12). These test solutions of alexidine were used in soaking J&J Sure Vue® (etafilcon A) lenses (soft lenses) in 2.5 mL of solution for 1 week or more in order to reach maximal alexidine uptake.
(§2) An ocular irritation screening study was conducted in the rabbit to determine the threshold for ocular irritation. Eyes treated with the lenses were compared to a contralateral control eye. Treated lenses were placed on the right eye of rabbits; control lenses were placed on the left eye. Any lenses displaced from the eyes during the lens wear day were reinserted after rinsing with 0.9% sodium chloride USP solution (SC). Eyes were examined with the aid of a direct light source before lens placement, at 50-70 minutes, 7-8 hours, 23-24 hours, and 30-32 hours after placement. Macroscopic observations were recorded in accordance with criteria in the Draize^* score system. The maximum total score is the sum of all scores obtained for the cornea, iris, and conjunctivae. Total maximum score possible is 110 per eye, 80 with respect to the cornea, 10 with respect to the iris, and 20 with respect to the conjunctivae.
(§3) *Draize, J. H., G. Woodward and H. O. Calvery. 1944. Methods for the study of irritation and toxicity of substances applied topically to the skin and mucous membranes. J. Pharmacol. Exp. Ther. 82:377-390.

[2] = as above; assay type: in vivo; design: key to Draize macroscopic ocular score (weighted total): Draize weighted total score; max 110 per eye; conditions: rabbit, in vivo, topical or ocular; 4 ppm formulation; rabbits; read-out: safety margin relative to initial onset of abnormal ocular health
Protocol: as §1, §2, §3

CCCCC(CC)CNC(=N)NC(=N)NCCCCCCNC(=N)NC(=N)NCC(CC)CCCC.Cl.Cl (stereo not drawn) [Alexidine.2HCl, 1,1 '-hexamethylenebis(5-(2-ethylhexyl)-biguanide) dihydrochloride]
safety in disinfecting soft lenses ([1]; 4.0 ppm, based on rabbit studies): very safe for human use in disinfecting soft lenses | Draize macroscopic ocular score (weighted total) ([1]; 4 ppm, 7-8 hours post lens): 2 | Draize macroscopic ocular score (weighted total) ([1]; 4 ppm, 23-24 hours post lens): 2 | Draize macroscopic ocular score (weighted total) ([1]; 4 ppm, 30-32 hours post lens): 2 | Draize macroscopic ocular score (weighted total) ([1]; 4 ppm, 50-70 minutes post lens): 2 | Draize macroscopic ocular score (weighted total) ([1]; 6 ppm, 7-8 hours post lens): 2 | Draize macroscopic ocular score (weighted total) ([1]; 6 ppm, 23-24 hours post lens): 2 | Draize macroscopic ocular score (weighted total) ([1]; 6 ppm, 30-32 hours post lens): 2 | Draize macroscopic ocular score (weighted total) ([1]; 6 ppm, 50-70 minutes post lens): 2 | Draize macroscopic ocular score (weighted total) ([1]; 8 ppm, 7-8 hours post lens): 2 | Draize macroscopic ocular score (weighted total) ([1]; 8 ppm, 23-24 hours post lens): 2 | Draize macroscopic ocular score (weighted total) ([1]; 8 ppm, 30-32 hours post lens): 2 | Draize macroscopic ocular score (weighted total) ([1]; 8 ppm, 50-70 minutes post lens): 2 | Draize macroscopic ocular score (weighted total) ([1]; 10 ppm, 7-8 hours post lens, dihydrochloride): 4 and 2 | Draize macroscopic ocular score (weighted total) ([1]; 10 ppm, 50-70 minutes post lens): 2 | Draize macroscopic ocular score (weighted total) ([1]; 12 ppm, 7-8 hours post lens): 2 | Draize macroscopic ocular score (weighted total) ([1]; 12 ppm, 23-24 hours post lens): 2 | Draize macroscopic ocular score (weighted total) ([1]; 12 ppm, 30-32 hours post lens): 2 | Draize macroscopic ocular score (weighted total) ([1]; 12 ppm, 50-70 minutes post lens): 2 | Draize macroscopic ocular score (weighted total) ([1]; 15 ppm, 7-8 hours post lens): 4 | Draize macroscopic ocular score (weighted total) ([1]; 15 ppm, 30-32 hours post lens): 2 | Draize macroscopic ocular score (weighted total) ([1]; 15 ppm, 50-70 minutes post lens, dihydrochloride): 2 and 4 | Draize macroscopic ocular score (weighted total) ([1]; 18 ppm, 7-8 hours post lens): 6 | Draize macroscopic ocular score (weighted total) ([1]; 18 ppm, 23-24 hours post lens): 2 | Draize macroscopic ocular score (weighted total) ([1]; 18 ppm, 30-32 hours post lens): 2 | Draize macroscopic ocular score (weighted total) ([1]; 18 ppm, 50-70 minutes post lens): 2 | Draize macroscopic ocular score (weighted total) ([1]; 22 ppm, 7-8 hours post lens): 11 | Draize macroscopic ocular score (weighted total) ([1]; 22 ppm, 23-24 hours post lens): 2 | Draize macroscopic ocular score (weighted total) ([1]; 22 ppm, 30-32 hours post lens): 2 | Draize macroscopic ocular score (weighted total) ([1]; 22 ppm, 50-70 minutes post lens): 2 | Draize macroscopic ocular score (weighted total) ([1]; 27 ppm, 50-70 minutes post lens): 2 | conjunctival reaction clearly defined ([1]; lenses soaked in solution): 15 ppm | corneal opacity observed ([1]; lenses soaked in solution): 27 ppm | iridial involvement observed ([1]; lenses soaked in solution): 22 ppm | first signs of increased ocular toxicity (conjunctival reactions) ([1]; lenses soaked, after 7-8 hours of lens wear): 10 ppm | selectivity ratio [2]: 2.5
